Results on 1 molecule are retold here after article PMC11404848, “Stenotrophomonas maltophilia uses a c-di-GMP module to sense the mammalian body temperature during infection” (PLOS Pathogens, 2024).

The target of the assay is T1, BtsD^Δ(SP-GGDEF).
T1 construct: N-terminal region; signal peptide (1-42) and GGDEF domain (836-1008) deleted; borders derived from printed deletions; expressed in E. coli BL21(DE3), His6 tag kept or GST tag cut
Put plainly: MicroScale Thermophoresis. The conditions noted are these: PBS pH 6.5; protein labelled with Red NHS dye. Type of assay: binding, Stenotrophomonas maltophilia. The text has this:
MicroScale Thermophoresis on BtsD^Δ(SP-GGDEF) | BtsD^Δ(SP-GGDEF) directly bound with c-di-GMP and Sensor^BtsK

`Nc1nc2c(ncn2[C@@H]2O[C@@H]3COP(=O)(O)O[C@H]4[C@@H](O)[C@H](n5cnc6c(=O)[nH]c(N)nc65)O[C@@H]4COP(=O)(O)O[C@H]3[C@H]2O)c(=O)[nH]1` [c-di-GMP] returned a Kd of 8.72 ± 4.12 µM.
